Consider 24 compounds from patent US7528138B2, “Pyrazolo[1,5-a]pyrimidines useful as inhibitors of protein kinases” (Vertex Pharmaceuticals Incorporated, priority 2004, dated 2009).

Assay [1] deals with Aurora-B (Homo sapiens, UniProt Q96GD4). Description: Aurora B (Aurora-1) Inhibition Assay, 33P incorporation. The format is biochemical. The following applies: enzyme inhibition data (Ki), Table 11; read-out: AurB Ki. As for the experimental part:
An assay buffer solution is prepared which consists of 25 mM HEPES (pH 7.5), 10 mM MgCl2, 0.1% BSA and 10% glycerol. A 22 nM Aurora-B solution, also containing 1.7 mM DTT and 1.5 mM Kemptide (LRRASLG), is prepared in assay buffer. To 22 μL of the Aurora-B solution, in a 96-well plate, is added 2 μl of a compound stock solution in DMSO and the mixture is allowed to equilibrate for 10 minutes at 25° C. The enzyme reaction is initiated by the addition of 16 μl stock [γ-^33P]-ATP solution (˜20 nCi/μL) prepared in assay buffer, to a final assay concentration of 800 μM. The reaction is stopped after 3 hours by the addition of 16 μL 500 mM phosphoric acid and the levels of ^33P incorporation into the peptide substrate is determined by the following method.
A phosphocellulose 96-well plate (Millipore, Cat no. MAPHNOB50) is pre-treated with 100 μL of a 100 mM phosphoric acid prior to the addition of the enzyme reaction mixture (40 μL). The solution is left to soak on to the phosphocellulose membrane for 30 minutes and the plate subsequently is washed four times with 200 μL of a 100 mM phosphoric acid. To each well of the dry plate is added 30 μL of Optiphase ‘SuperMix’ liquid scintillation cocktail (Perkin Elmer) prior to scintillation counting (1450 Microbeta Liquid Scintillation Counter, Wallac). Levels of non-enzyme catalysed background radioactivity are determined by adding 16 μL of the 500 mM phosphoric acid to control wells, containing all assay components (which acts to denature the enzyme), prior to the addition of the [γ-^33P]-ATP solution. Levels of enzyme catalysed ^33P incorporation are calculated by subtracting mean background counts from those measured at each inhibitor concentration. For each Ki determination 8 data points, typically covering the concentration range 0-10 μM compound, are obtained in duplicate (DMSO stocks are prepared from an initial compound stock of 10 mM with subsequent 1:2.5 serial dilutions). Ki values are calculated from initial rate data by non-linear regression using the Prism software package (Prism 3.0, Graphpad Software, San Diego, Calif.).

For assay [2], the target named is T1, Rlk (Homo sapiens, UniProt P42681).
T1 sequence (P42681 1-527): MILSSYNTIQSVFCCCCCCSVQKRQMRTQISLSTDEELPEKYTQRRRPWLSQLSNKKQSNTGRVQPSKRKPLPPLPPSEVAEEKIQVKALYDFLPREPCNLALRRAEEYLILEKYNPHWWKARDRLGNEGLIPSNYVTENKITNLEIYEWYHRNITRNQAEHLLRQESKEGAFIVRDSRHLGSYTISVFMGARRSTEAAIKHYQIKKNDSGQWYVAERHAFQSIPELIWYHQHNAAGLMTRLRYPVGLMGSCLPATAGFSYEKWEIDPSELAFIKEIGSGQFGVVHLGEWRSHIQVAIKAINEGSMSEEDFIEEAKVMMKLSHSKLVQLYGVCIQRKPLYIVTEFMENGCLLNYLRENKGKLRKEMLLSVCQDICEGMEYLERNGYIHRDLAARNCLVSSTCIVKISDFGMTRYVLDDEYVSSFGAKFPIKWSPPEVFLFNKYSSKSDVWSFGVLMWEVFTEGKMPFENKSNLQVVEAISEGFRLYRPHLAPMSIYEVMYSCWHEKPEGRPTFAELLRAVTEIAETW
Description: RLK Inhibition Assay, coupled enzyme assay. The class given is biochemical. Conditions: enzyme inhibition data (Ki), Table 11. How it is done: Compounds are screened for their ability to inhibit Rlk using a standard coupled enzyme assay (Fox et al., Protein Sci., (1998) 7, 2249). Assays are carried out in a mixture of 20 mM MOPS (pH 7.0), 10 mM MgCl2, 0.1% BSA and 1 mM DTT. Final substrate concentrations in the assay are 100 μM ATP (Sigma Chemicals) and 10 μM peptide (Poly Glu:Tyr 4:1). Assays are carried out at 30° C. and in the presence of 40 nM Rlk. Final concentrations of the components of the coupled enzyme system are 2.5 mM phosphoenolpyruvate, 300 μM NADH, 30 μg/ml pyruvate kinase and 10 μg/ml lactate dehydrogenase.
An assay stock buffer solution is prepared containing all of the reagents listed above, with the exception of ATP and the test compound of interest. 60 μl of the stock solution is placed in a 96 well plate followed by addition of 2 μl of DMSO stock containing serial dilutions of the test compound (typically starting from a final concentration of 7.5 μM). The plate is preincubated for 10 minutes at 30° C. and the reaction initiated by addition of 5 μl of ATP. Initial reaction rates are determined with a Molecular Devices SpectraMax Plus plate reader over a 10 minute time course. IC50 and Ki data are calculated from non-linear regression analysis using the Prism software package (GraphPad Prism version 3.0cx for Macintosh, GraphPad Software, San Diego Calif., USA).

SMILES strings stand for the structures.

Sequence of Aurora-B (Q96GD4 whole entry): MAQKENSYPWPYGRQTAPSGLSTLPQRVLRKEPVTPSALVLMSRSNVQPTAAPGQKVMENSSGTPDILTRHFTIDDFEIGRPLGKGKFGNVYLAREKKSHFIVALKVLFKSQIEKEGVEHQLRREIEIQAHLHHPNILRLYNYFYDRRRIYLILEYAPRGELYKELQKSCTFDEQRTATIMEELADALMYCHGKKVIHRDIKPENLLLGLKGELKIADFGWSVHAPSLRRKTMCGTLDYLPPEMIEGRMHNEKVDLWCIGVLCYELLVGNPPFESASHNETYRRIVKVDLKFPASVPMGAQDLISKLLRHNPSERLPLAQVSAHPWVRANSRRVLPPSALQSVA

Broadly, the Ki is the dissociation constant of the complex between target and ligand, obtained from inhibition or displacement. Take `Cc1cccnc1-c1c(N)nn2cc(-c3ccncc3)cnc12` [Compound V-135]: the Ki in assay [1] fell in the range of 500 to 5000 nM.
Consider `NCc1cccc(-c2cnc3c(-c4ccccn4)c(N)nn3c2)c1` [Compound V-202], for which the Ki in assay [2] fell in the range of 500 to 5000 nM.
As to `Nc1nn2cc(-c3ccc(CN4CCNCC4)cc3)cnc2c1-c1ccccn1` [Compound V-217], the Ki in assay [2] is < 500 nM.
As for `Nc1nn2cc(-c3ccncc3)cnc2c1-c1ncccc1OCc1ccccc1` [Compound V-134], the Ki in assay [1] is 500 to 5000 nM.
Turning to `CN(C)Cc1ccc(-c2cnc3c(-c4ccccn4)c(N)nn3c2)cc1` [Compound V-214], in assay [2], the Ki is 500 to 5000 nM.
For the compound `NC1NN2C=C(c3cccc(CN4CCCNCC4)c3)C=NC2=C1c1ccccn1` (stereo not drawn) [Compound V-228], in assay [2], the Ki lay within 500 to 5000 nM.
Same read-out and setting: under `Nc1nn2cc(-c3cccc(N4CCNCC4)c3)cnc2c1-c1ccccn1` [Compound V-222] stands 500 to 5000 nM; under `NC1NN2C=C(c3cccc(CN4CC[C@H](N)C4)c3)C=NC2=C1c1ccccn1` (stereo partly drawn) [Compound V-227], 500 to 5000 nM.
On the same count and under the same terms, under `CNCCCN(C)C(=O)c1ccc(-c2cnc3c(-c4ccccn4)c(N)nn3c2)cc1` [Compound V-191] stands < 500 nM.
Consider `Cc1ccc(-c2c(N)nn3cc(-c4ccncc4)cnc23)nc1` [Compound V-132], for which the Ki in assay [1] is 500 to 5000 nM.
Same read-out and setting: under `Cc1cccc(-c2c(N)nn3cc(-c4ccncc4)cnc23)n1` [Compound V-178] stands 500 to 5000 nM.
For `CN(C)CCN(C)C(=O)c1ccc(-c2cnc3c(-c4ccccn4)c(N)nn3c2)cc1` [Compound V-188], the Ki in assay [2] was < 500 nM.
In assay [2], `Nc1nn2cc(-c3cccc(CN4CCNCC4)c3)cnc2c1-c1ccccn1` [Compound V-223] yielded a Ki of 500 to 5000 nM.
On the same count and under the same terms, under `Nc1nn2cc(-c3ccc(CN4CC[C@H](N)C4)cc3)cnc2c1-c1ccccn1` [Compound V-233] stands 500 to 5000 nM; under `NC1CCN(Cc2cccc(C3=CN4NC(N)C(c5ccccn5)=C4N=C3)c2)CC1` (stereo not drawn) [Compound V-229], 500 to 5000 nM; under `NCc1ccc(-c2cnc3c(-c4ccccn4)c(N)nn3c2)cc1` [Compound V-195], 500 to 5000 nM.
The same measure, in the same setting: under `CN(C)Cc1cccc(-c2cnc3c(-c4ccccn4)c(N)nn3c2)c1` [Compound V-215] stands 500 to 5000 nM.
On the same count and under the same terms, under `CNCCCN(C)Cc1ccc(-c2cnc3c(-c4ccccn4)c(N)nn3c2)cc1` [Compound V-230] stands < 500 nM.
As to `Nc1nn2cc(-c3ccncc3)cnc2c1-c1cc(N2CCCCC2)ncn1` [Compound V-179], the Ki in assay [1] was < 500 nM.
In the case of `Nc1nn2cc(-c3ccc(CN4CC[C@@H](N)C4)cc3)cnc2c1-c1ccccn1` [Compound V-231], the Ki in assay [2] was in the range of 500 to 5000 nM.
The same measure, in the same setting: under `Nc1nn2cc(-c3ccc(CNC4CCNCC4)cc3)cnc2c1-c1ccccn1` [Compound V-232] stands 500 to 5000 nM.
Same read-out and setting: under `CNCc1ccc(-c2cnc3c(-c4ccccn4)c(N)nn3c2)cc1` [Compound V-236] stands 500 to 5000 nM.
For the compound `Nc1nn2cc(-c3ccc(CN4CCC(N)CC4)cc3)cnc2c1-c1ccccn1` [Compound V-234], the Ki in assay [2] lay in the range of 500 to 5000 nM.
On to `Cc1ccnc(-c2c(N)nn3cc(-c4ccncc4)cnc23)c1` [Compound V-133], for which the Ki in assay [1] lay within 500 to 5000 nM.
